# Experimental data as given in patent US12465588B2, “Indole carboxamide derivative and pharmaceutical composition containing same” (KUKJE PHARMA CO., LTD., priority 2019, dated 2025).
# System: A549 human lung cancer cells
# Assay: Measurement of PGE2 in IL-1β-treated A549 human lung cancer cells
# Format: cell-based
# Conditions: PGE2 production, A549 cell, IL-1β 1 ng/mL, 48 hours
# Protocol: Samples at various concentrations were added at 24 hours after A549 human lung cancer cells were seeded. After 1 hour, IL-1β of 1 ng/mL was added. The cells were cultured for 48 hours and then the culture supernatant was collected. PGE2 of the collected supernatant was measured according to the manufacturer's instructions using a PGE2 EIA kit.
row,IC50 [nM],SMILES
1,30.3,"CC(C)C(=O)NCc1ccc(Cl)c(C(=O)Nc2ccc3c(c2)cc(C(=O)N[C@@H](C)c2ccc(C(F)(F)F)cc2)n3C)c1 [Compound 60, (S)-5-(2-chloro-5-(isobutyramidomethyl)benzamido)-1-methyl-N-(1-(4-(trifluoromethyl)phenyl)ethyl)-1H-indole-2-carboxamide]"
2,59.2,"CC(C)C(=O)NCc1ccc(Cl)c(C(=O)Nc2ccc3c(c2)cc(C(=O)NCc2ccc(F)c(Cl)c2)n3C)c1 [Compound 56, N-(3-chloro-4-fluorobenzyl)-5-(2-chloro-5-(isobutyramidomethyl)benzamido)-1-methyl-1H-indole-2-carboxamide]"
3,5.82,"CC(C)C(=O)NCc1ccc(Cl)c(C(=O)Nc2ccc3c(c2)cc(C(=O)NC(C)c2ccc(C(F)(F)F)cc2)n3C)c1 (stereo not shown) [Compound 47, 5-(2-chloro-5-(isobutyramidomethyl)benzamido)-1-methyl-N-(1-(4-(trifluoromethyl)phenyl)ethyl)-1H-indole-2-carboxamide]"
4,14.8,"CC(C)C(=O)NCc1ccc(Cl)c(C(=O)Nc2ccc3c(c2)cc(C(=O)NCc2ccccc2C(F)(F)F)n3CC(F)(F)F)c1 [Compound 63, 5-(2-chloro-5-(isobutyramidomethyl)benzamido)-1-(2,2,2-trifluoroethyl)-N-(2-(trifluoromethyl)benzyl)-1H-indole-2-carboxamide]"
5,88.1,"CC(C)C(=O)NCc1ccc(Cl)c(C(=O)Nc2ccc3c(c2)cc(C(=O)Nc2cc(F)cc(C(F)(F)F)c2)n3C)c1 [Compound 17, 5-(2-chloro-5-(isobutyramidomethyl)benzamido)-N-(3-fluoro-5-(trifluoromethyl)phenyl)-1-methyl-1H-indole-2-carboxamide]"
6,1.8,"CC(C)C(=O)NCc1ccc(Cl)c(C(=O)Nc2ccc3c(c2)cc(C(=O)N[C@@H](C)c2ccc(Br)cc2)n3CC(F)(F)F)c1 [Compound 67, (S)—N-(1-(4-bromophenyl)ethyl)-5-(2-chloro-5-(isobutyramidomethyl)benzamido)-1-(2,2,2-trifluoroethyl)-1H-indole-2-carboxamide]"
7,7.9,"CC(C)C(=O)NCc1ccc(Cl)c(C(=O)Nc2ccc3c(c2)cc(C(=O)NCc2ccc(C(F)(F)F)cc2)n3C)c1 [Compound 34, 5-(2-chloro-5-(isobutyramidomethyl)benzamido)-1-methyl-N-(4-(trifluoromethyl)benzyl)-1H-indole-2-carboxamide]"
8,7.19,"CC(C)C(=O)NCc1ccc(Cl)c(C(=O)Nc2ccc3c(c2)cc(C(=O)Nc2cccc(-c4ccc(C(F)(F)F)cc4)c2)n3C)c1 [Compound 16, 5-(2-chloro-5-(isobutyramidomethyl)benzamido)-1-methyl-N-(4′-(trifluoromethyl)-[1,1′-biphenyl]-3-yl)-1H-indole-2-carboxamide]"
9,9.75,"CC(C)C(=O)NCc1ccc(Cl)c(C(=O)Nc2ccc3c(c2)cc(C(=O)NCc2ccc(Cl)cc2)n3C)c1 [Compound 49, 5-(2-chloro-5-(isobutyramidomethyl)benzamido)-N-(4-chlorobenzyl)-1-methyl-1H-indole-2-carboxamide]"
10,237,"CC(C)C(=O)NCc1ccc(Cl)c(C(=O)Nc2ccc3c(c2)cc(C(=O)Nc2ccc(F)cc2)n3C)c1 [Compound 2, 5-(2-chloro-5-(isobutyramidomethyl)benzamido)-N-(4-fluorophenyl)-1-methyl-1H-indole-2-carboxamide]"
11,72.3,"CC(C)C(=O)NCc1ccc(Cl)c(CNc2ccc3c(c2)cc(C(=O)Nc2ccc(OC(F)(F)F)cc2)n3C)c1 [Compound 73, 5-((2-chloro-5-(isobutyramidomethyl)benzyl)amino)-1-methyl-N-(4-(trifluoromethoxy)phenyl)-1H-indole-2-carboxamide]"
12,9.22,"CC(C)C(=O)NCc1ccc(Cl)c(C(=O)Nc2ccc3c(c2)cc(C(=O)N[C@@H](C)c2ccc4ccccc4c2)n3C)c1 [Compound 31, (S)-5-(2-chloro-5-(isobutyramidomethyl)benzamido)-1-methyl-N-(1-(naphthalen-2-yl)ethyl)-1H-indole-2-carboxamide]"
13,9.38,"CC(C)C(=O)NCc1ccc(Cl)c(C(=O)Nc2ccc3c(c2)cc(C(=O)NCc2ccc(OC(F)(F)F)cc2)n3CC(F)(F)F)c1 [Compound 72, 5-(2-chloro-5-(isobutyramidomethyl)benzamido)-1-(2,2,2-trifluoroethyl)-N-(4-(trifluoromethoxy)Benzyl)-1H-indole-2-carboxamide]"
14,47,"CC(C)C(=O)NCc1ccc(Cl)c(C(=O)Nc2ccc3c(c2)cc(C(=O)NCc2cc(F)cc(C(F)(F)F)c2)n3CC(F)(F)F)c1 [Compound 69, 5-(2-chloro-5-(isobutyramidomethyl)benzamido)-N-(3-fluoro-5-(trifluoromethyl)benzyl)-1-(2,2,2-trifluoroethyl)-1H-indole-2-carboxamide]"
15,209,"CC(C)C(=O)NCc1ccc(Cl)c(C(=O)Nc2ccc3c(c2)cc(C(=O)Nc2cccc(Cl)c2)n3C)c1 [Compound 3, 5-(2-chloro-5-(isobutyramidomethyl)benzamido)-N-(3-chlorophenyl)-1-methyl-1H-indole-2-carboxamide]"
16,2.71,"CC(C)C(=O)NCc1ccc(Cl)c(C(=O)Nc2ccc3c(c2)cc(C(=O)N[C@@H](C)c2ccc4ccccc4c2)n3CC(F)(F)F)c1 [Compound 65, (S)-5-(2-chloro-5-(isobutyramidomethyl)benzamido)-N-(1-(naphthalen-2-yl)ethyl)-1-(2,2,2-trifluoroethyl)-1H-indole-2-carboxamide]"
17,10.4,"CC(C)C(=O)NCc1ccc(Cl)c(C(=O)Nc2ccc3c(c2)cc(C(=O)NCc2ccccc2C(F)(F)F)n3C)c1 [Compound 35, 5-(2-chloro-5-(isobutyramidomethyl)benzamido)-1-methyl-N-(2-(trifluoromethyl)benzyl)-1H-indole-2-carboxamide]"
18,9.65,"CC(C)C(=O)NCc1ccc(Cl)c(C(=O)Nc2ccc3c(c2)cc(C(=O)NCc2cccc(C(F)(F)F)c2)n3CC(F)(F)F)c1 [Compound 70, 5-(2-chloro-5-(isobutyramidomethyl)benzamido)-1-(2,2,2-trifluoroethyl)-N-(3-(trifluoromethyl)benzyl)-1H-indole-2-carboxamide]"
19,5.54,"CC(C)C(=O)NCc1ccc(Cl)c(C(=O)Nc2ccc3c(c2)cc(C(=O)N[C@H](C)c2ccc(C(F)(F)F)cc2)n3C)c1 [Compound 58, (R)-5-(2-chloro-5-(isobutyramidomethyl)benzamido)-1-methyl-N-(1-(4-(trifluoromethyl)phenyl)ethyl)-1H-indole-2-carboxamide]"
20,9.62,"CC(C)C(=O)NCc1ccc(Cl)c(C(=O)Nc2ccc3c(c2)cc(C(=O)NCc2ccc(F)cc2)n3C)c1 [Compound 32, 5-(2-chloro-5-(isobutyramidomethyl)benzamido)-N-(4-fluorobenzyl)-1-methyl-1H-indole-2-carboxamide]"
21,9.38,"CC(C)C(=O)NCc1ccc(Cl)c(C(=O)Nc2ccc3c(c2)cc(C(=O)NCc2ccc(C(F)(F)F)cc2)n3CC(F)(F)F)c1 [Compound 64, 5-(2-chloro-5-(isobutyramidomethyl)benzamido)-1-(2,2,2-trifluoroethyl)-N-(4-(trifluoromethyl)benzyl)-1H-indole-2-carboxamide]"
22,277,"CC(C)C(=O)NCc1ccc(Cl)c(C(=O)Nc2ccc3c(c2)cc(C(=O)Nc2cccc(F)c2)n3C)c1 [Compound 1, 5-(2-chloro-5-(isobutyramidomethyl)benzamido)-N-(3-fluorophenyl)-1-methyl-1H-indole-2-carboxamide]"
